{"source": "patent US20250368639A1", "about": "“SOLID FORMS OF A COMPOUND FOR TREATING OR PREVENTING HYPERURICEMIA OR GOUT” (ATOM THERAPEUTICS CO., LTD, priority 2022, published 2025)", "key": {"[1]": {"test": "Dynamic vapor sorption/desorption (DVS)", "format": "physicochemical", "protocol": "Moisture sorption/desorption data were collected on a SMS DVS intrinsic Vapor Sorption Analyzer under a nitrogen purge. The DVS experiment generally includes a moisture sorption step and a moisture desorption step. […] In other words, the sample is considered to have reached an equilibrium between moisture sorption and desorption under the relative humidity when dm/dt≤0.01%. The sample was maintained at the temperature of 25° C. with relative humidity varied from 0% to 95%, and back to 0% at an increment of 5% RH each step."}, "[2]": {"test": "Solubility in water, buffers and bio-relevant media (37° C., 24 h shaking, HPLC)", "format": "physicochemical", "details": "37° C., 24 h", "protocol": "The solubility of Form 1, Form 2, Form 5D, Form 6, Form 8, and Form 11 was analyzed in water, 0.1NaqueousHCl, pH4.5 acetate buffer solution, pH6.8 phosphate buffer solution, simulated gastric fluid (SGF), Fasted State Simulated Intestinal Fluid (FaSSIF), and Fed State Simulated Intestinal Fluid (FeSSIF).\nAbout 5 mg or 10 mg of sample was weighed out into each vial and mixed with about 5 ml of medium to form a solution. The target concentration for the potassium salt in water was 2 mg/ml; and the target concentration for all other forms were 1 mg/mL. All samples were kept shaking at 200 rounds per minute (rpm) under 37° C. for 24 hours. The pH value of these samples were determined after shaking for 24 hours. Subsequently, they were centrifuged at the speed of 12000 rpm for 2 mins. The supernatant was diluted with methanol as necessary, and the concentrations were determined by HPLC. When the solubility of potassium salt was tested in water, the supernatant was diluted 100 times, while no other samples were diluted. The HPLC analysis utilizes Agilent Eclipse XDB-C8 4.6*150 mm, 5 μm column at 40° C., a mobile phase of 0.1% TFA: ACN=70:30, an injection volume of 10 μl, a flow rate of 1.0 ml/min, a diluent of methanol, and a detection wavelength of 234 nm."}, "[3]": {"test": "Suspensions for animal formulation in 0.5% CMC-Na (XRPD)", "format": "physicochemical", "details": "about 30 mg in 30 ml, sonication", "protocol": "About 30 mg of Form 1, Form 2, and Form 5D were each added into a respective 40 ml glass bottle and mixed with 30 ml of 0.5% CMC-Na solution. The solids were dispersed uniformly in the solution with the aid of sonication. After that, the solids were isolated by centrifugation, dried at room temperature, and the dry solid analyzed with XRPD."}, "[4]": {"test": "Single-dose pharmacokinetic study, oral and intravenous, in SD rats", "format": "in vivo, SD rat", "details": "for AUC(0-inf): read-out: AUCINF—pred; for half-life: read-out: HL_Lambda_z (T1/2) (converted); for Vd/F: read-out: Vz—F—pred", "protocol": "Form 1, Form 2, and Form 5D were each evaluated via a single-dose pharmacokinetic study following oral and intravenous administration in SD rats. […] Form 1, Form 2, and Form 5Dwere evaluated by rat pharmacokinetics study.\nMale SD rat was purchased from Shanghai Sippr B&K Laboratory Animals Co., Ltd. The weight was 180 g˜200 g.\n20% HP-β-CD was prepared from dissolving20 g of HP-β-CD (from Sigma) in 100 mL purified water. 0.5% CMC-Na was prepared from dissolving 1 g of CMC-Na (from Aladdin) in 200 mL purified water. The solutions were stored at 2-8 degree.\n(§1) Group 1:4.95 mg (equivalent to 4.50 mg of anhydrous free base) of Form 1 was weighed out into a 20 ml bottle, and totally dissolved by 0.225 mL DMSO by sonication. After that, 4.275 mL of 20% HP-β-CD was added, mixed well by sonication. Finally, the pH value was adjusted to 7.0 by sodium hydroxide solution. The clear solution was obtained, and the concentration was 1 mg/mL.\nGroup 2:10.08 mg (equivalent to 9.164 mg of anhydrous free base) of Form 1 was weighed out into a 20 ml bottle, and then 9.164 mL of 0.5% CMC-Na was added. A white suspension was formed after sonicated by ultrasonic cell disruptor, and the concentration was 1 mg/mL.\nGroup 3:9.47 mg of Form 2 was weighed out into a 20 ml bottle, and then 9.470 mL of 0.5% CMC-Na was added. After sonicated, it was mixed well by homogenizer for 2 minutes. Finally, a white suspension was formed, and the concentration was 1 mg/mL.\nGroup 4:9.80 mg (equivalent to 8.909 mg of free base) of Form 5Dwas weighed out into a 20 mL bottle, and then 8.909 mL of 0.5% CMC-Na was added. After sonicated, it was mixed well by homogenizer for 2 minutes. Finally, a white suspension was formed, and the concentration was 1 mg/mL.\nas §1, with “Group 5:1.94” for “Group 1:4.95”, “to 1.763” for “to 4.50”, “by 0.088” for “by 0.225”, “that, 1.675” for “that, 4.275”, “was 0.2” for “was 1”\nThe dose of intravenous administration was 1 mg/kg and 5 mg/kg, respectively. The oral dose was 10 mg/kg. Animals were fasted overnight before drug administration. After the drug administration, the rats were fed at the 4 hours.\nAbout 150˜200 μL of blood was collected at the initial time (only intravenous), and at 0.25, 0.5, 1, 2, 4, 6, 8 and 24 h by jugular venipuncture blooding method. EDTA-K2 was selected as anticoagulant. Blood samples were centrifuged within one hour at 6000 rpm for 8 minutes (placed on wet ice before centrifugation). The supernatant was stored at −20° C. for LC-MS/MS analysis.\nThe computer program Microsoft Office Excel 2007 (Microsoft, USA) was used to process data and graphics. The pharmacokinetic parameters were calculated by WinNolin 6.4 software."}, "[5]": {"details": "male SD rats, oral 10 mg/kg, Average (Table 10)"}, "[6]": {"details": "male, SD, rat, plasma, po, 10 mg/kg, male SD rats, oral 10 mg/kg, Average (Table 10)"}, "[7]": {"details": "male, SD, rat, plasma, po, 10 mg/kg, male SD rats, oral 10 mg/kg, individual rats 301/302/303 (c1/c2/c3)"}}, "note": "“Also recorded” adds a separate entry of the source. Read-outs that look alike come from different tables or passages of the source."}
{"smiles": "CCc1nc2ccccn2c1C(=O)c1cc(Br)c(O)c(C#N)c1", "note": "[Form 2, 3-bromo-5-[(2-ethylimidazo[1,2-a]pyridin-3-yl)carbonyl]-2-hydroxybenzonitrile]", "values": [{"measurement": "DVS (80% RH)", "setting": "[1]; 25° C., 80% RH", "result": 0.40, "unit": "%"}, {"measurement": "Water remaining within the sample (DVS desorption)", "setting": "[1]; relative humidity decreased back to 0%", "result": "about 3.4%"}, {"measurement": "Hygroscopicity (DVS)", "setting": "[1]; relative humidity less than 80%", "result": "low hygroscopicity"}, {"measurement": "Crystal form after DVS analysis (XRPD)", "setting": "[1]; sample following DVS analysis", "result": "converted into Form 1"}, {"measurement": "Water absorbed (DVS)", "setting": "[1]; when relative humidity reached 85% RH", "result": "about 3.8%"}, {"measurement": "Solubility", "setting": "[2]; 0.1N HCl", "result": 3.8, "unit": "µg/mL"}, {"measurement": "Highest concentration among the media", "setting": "[2]", "result": "around 40 μg/ml"}, {"measurement": "Solubility in the buffer solution and bio-relevant medium", "setting": "[2]", "result": "low solubilities"}, {"measurement": "Solubility", "setting": "[2]; FaSSIF", "result": 41.8, "unit": "µg/mL"}, {"measurement": "Solubility", "setting": "[2]; FeSSIF", "result": 2.8, "unit": "µg/mL"}, {"measurement": "Solubility", "setting": "[2]; SGF", "result": 3.0, "unit": "µg/mL"}, {"measurement": "Solubility", "setting": "[2]; Water", "result": 20.0, "unit": "µg/mL"}, {"measurement": "Solubility", "setting": "[2]; pH 4.5 acetate buffer", "result": "<1", "unit": "µg/mL"}, {"measurement": "Solubility", "setting": "[2]; pH 6.8 phosphate buffer", "result": 24.1, "unit": "µg/mL"}, {"measurement": "Crystal form after dispersion in 0.5% CMC-Na solution (XRPD)", "setting": "[3]", "result": "transformed into Form 1"}, {"measurement": "Exposure and bioavailability (words, comparison)", "setting": "[4]; SD rats, oral administration 10 mg/kg, 10 mg/kg", "result": "higher dose exposure and bio-availability than Form 1; also recorded: higher exposure (AUC0-1) and better bioavailability than Form 1; also recorded: approximately the same as Form 5D; also recorded: sufficiently high bioavailability"}, {"measurement": "AUClast", "setting": "[4]; [5]", "result": 88482.4, "unit": "ng·h/mL"}, {"measurement": "Cl—F—pred", "setting": "[4]; [5]", "result": 2, "unit": "mL/min/kg"}, {"measurement": "F", "setting": "[4]; male SD rats, oral 10 mg/kg, calculated by intravenous administration of 1 mg/kg, Average (Table 10)", "result": 50.98, "unit": "%"}, {"measurement": "Cmax", "setting": "[4]; [6]", "result": 7950, "unit": "ng/mL"}, {"measurement": "MRT last", "setting": "[4]; [6]", "result": 6.12, "unit": "h"}, {"measurement": "Tmax", "setting": "[4]; [6]", "result": 4, "unit": "h"}, {"measurement": "AUC(0-inf)", "setting": "[4]; [6]", "result": 89100, "unit": "ng·h/mL"}, {"measurement": "half-life", "setting": "[4]; [6]", "result": 3.08, "unit": "h"}, {"measurement": "Vd/F", "setting": "[4]; [6]", "result": 0.52, "unit": "L/kg"}, {"measurement": "AUC(0-t)", "setting": "[4]; [7]", "result": 108000, "unit": "ng·h/mL"}, {"measurement": "Cmax", "setting": "[4]; [7]", "result": 8490, "unit": "ng/mL"}, {"measurement": "MRT last", "setting": "[4]; [7]", "result": 6.15, "unit": "h"}, {"measurement": "Tmax", "setting": "[4]; [7]", "result": 4, "unit": "h"}, {"measurement": "AUC(0-inf)", "setting": "[4]; [7]", "result": 92400, "unit": "ng·h/mL"}, {"measurement": "half-life", "setting": "[4]; [7]", "result": 3.32, "unit": "h"}, {"measurement": "Vd/F", "setting": "[4]; [7]", "result": 0.45, "unit": "L/kg"}]}
